What all share (test): cells
What all share (type): cell-based

The test system of one assay is A549. Particulars: Homo sapiens; for GI50: concentration that produces 50% growth inhibition; for IC (total growth inhibition): total growth inhibition (cytostatic effect), read-out: TGI. The source says:
(§1) The aim of this assay is to evaluate the in vitro cytostatic (ability to delay or arrest tumor cell growth) or cytotoxic (ability to kill tumor cells) activity of the samples being tested.
(§2) A colorimetric type of assay, using sulforhodamine B (SRB) reaction has been adapted for a quantitative measurement of cell growth and viability (following the technique described by Skehan P et al. J. Natl. Cancer Inst. 1990, 82, 1107-1112).
(§3) This form of assay employs SBS-standard 96-well cell culture microplates (Faircloth et al. Methods in cell science, 1988, 11(4), 201-205; Mosmann et al, Journal of Immunological. Methods, 1983, 65(1-2), 55-63). All the cell lines used in this study, derived from different types of human cancer, were obtained from the American Type Culture Collection (ATCC).
(§4) Cells were maintained in Dulbecco's Modified Eagle Medium (DMEM) supplemented with 10% Fetal Bovine Serum (FBS), 2 mM L-glutamine, 100 U/mL penicillin and 100 U/mL streptomycin at 37° C., 5% CO2 and 98% humidity. For the experiments, cells were harvested from subconfluent cultures using trypsinization and resuspended in fresh medium before counting and plating.
(§5) Cells were seeded in 96 well microtiter plates at 5×10^3 cells per well in aliquots of 150 μL, and allowed to attach to the plate surface for 18 hours in drug free medium. One control (untreated) plate of each cell line was fixed (as described below) and used for time zero reference value. Afterwards, test samples were added to the cultures in ten serial dilutions, in aliquots of 50 μL, ranging from 10 to 0.00262 μg/mL. After 48 hours exposure, the antitumor effect was estimated by the SRB method: Briefly, cells were washed twice with PBS, fixed for 15 min in 1% glutaraldehyde solution, rinsed twice in PBS, and stained in 0.4% SRB solution for 30 min at room temperature. Cells were then rinsed several times with 1% acetic acid solution and air-dried. SRB was then extracted in 10 mM trizma base solution and the absorbance measured in an automated spectrophotometric plate reader at 490 nm. Cell survival was expressed as percentage of control cell growth. The final effect of the sample being tested was estimated by applying the NCI algorithm (Boyd M R and Paull K D. Drug Dev. Res. 1995, 34, 91-104).
(§6) Using the mean±SD of triplicate cultures, a dose-response curve was automatically generated using nonlinear regression analysis. Three reference parameters were calculated (NCI algorithm) by automatic interpolation: GI50=concentration that produces 50% growth inhibition; TGI=total growth inhibition (cytostatic effect) and LC50=concentration that produces 50% net cell killing (cytotoxic effect).

In another assay the test system is HT29. The note with it: Homo sapiens; for GI50: concentration that produces 50% growth inhibition; for IC (total growth inhibition): total growth inhibition (cytostatic effect), read-out: TGI.
From the text: as §1, §2, §3, §4, §5, §6

The next assay deals with MDA-MB-231. Particulars: Homo sapiens; for GI50: concentration that produces 50% growth inhibition; for IC (total growth inhibition): read-out: TGI.
From the text: as §1, §2, §3, §4, §5, §6

The mark [1] stands for this setting: A549, 48 hours exposure, concentration that produces 50% net cell killing, read-out: LC50 (the source's name).
[2] abbreviates: HT-29, HT29, 48 hours exposure, concentration that produces 50% net cell killing, read-out: LC50 (the source's name).
Where [3] appears, read: MDA-MB-231, 48 hours exposure, concentration that produces 50% net cell killing, read-out: LC50 (the source's name).
The mark [4] stands for this setting: MDA-MB-231, 48 hours exposure, total growth inhibition (cytostatic effect).
[5] abbreviates: MDA-MB-231, 48 h, read-out: LC50.

Like-named read-outs stand apart in the source and are kept apart here.

With `C/C=C\C[C@@H](C/C=C\NC(=O)[C@@H](NC(=O)C#C/C=C\C(C)=C\[C@H](C)[C@@H]1CC=C(OC)C(=O)O1)C(C)(C)C)O[Si](c1ccccc1)(c1ccccc1)C(C)(C)C` [Compound 79], the GI50 with A549 (A549, 48 hours exposure) is over 13100 nM; with HT29 (HT-29, HT29, 48 hours exposure) it was 5100 nM; in the assay with MDA-MB-231 (MDA-MB-231, 48 hours exposure) it was over 13100 nM. Also, the CC50 in the assay with A549 (setting [1]), in the assay on HT29 (setting [2]) and with MDA-MB-231 (setting [3]) was over 13100 nM each time. For the same compound, the IC (total growth inhibition) in the assay with A549 (A549, 48 hours exposure) is over 13.1 µM; with HT29 (HT-29, HT29, 48 hours exposure), over 13.1 µM; with MDA-MB-231 (setting [4]), over 13.1 µM.
Regarding `C/C=C\C[C@H](O)C/C=C\NC(=O)[C@@H](NC(=O)C#C/C=C\C(C)=C\[C@H](C)[C@@H]1CC=C(OC)C(=O)O1)C(C)(C)C` [Compound 80], the CC50 in the assay on A549 (A549, 48 h, read-out: LC50) is over 19000 nM; in the assay with HT29 (HT-29, 48 h, read-out: LC50), over 19000 nM; in the assay on MDA-MB-231 (setting [5]) it was over 19000 nM. For the same compound, the GI50 in the assay on A549 (A549, 48 hours exposure) stood at 93 nM; in the assay on HT29 (HT-29, HT29, 48 hours exposure), 49.4 nM; with MDA-MB-231 (MDA-MB-231, 48 hours exposure) it was 152 nM. Moreover, the IC (total growth inhibition) with A549 (A549, 48 hours exposure) is 0.304 µM; in the assay with HT29 (HT-29, HT29, 48 hours exposure), 0.0949 µM; in the assay on MDA-MB-231 (setting [4]) it was over 19 µM.
For `C/C=C\C[C@@H](C/C=C\NC(=O)[C@@H](NC(=O)C#C/C=C\C(C)=C\[C@H](C)[C@@H]1CC=C(OC)C(=O)O1)C(C)(C)C)OC(N)=O` [Compound 81], the CC50 was over 17600 nM in the assay with A549 (A549, 48 h, read-out: LC50); over 17600 nM in the assay with HT29 (HT-29, 48 h, read-out: LC50); over 17600 nM in the assay with MDA-MB-231 (setting [5]). Besides, the GI50 in the assay with A549 (A549, 48 hours exposure) worked out at 2280 nM; in the assay with HT29 (HT-29, HT29, 48 hours exposure), 1260 nM; in the assay with MDA-MB-231 (MDA-MB-231, 48 hours exposure), 2980 nM. Further, the IC (total growth inhibition) with A549 (A549, 48 hours exposure) was 8.43 µM; in the assay with HT29 (HT-29, HT29, 48 hours exposure) it was 2.98 µM; in the assay with MDA-MB-231 (MDA-MB-231, 48 h), over 17.6 µM.
Turning to `COC1=CC[C@@H]([C@@H](C)/C=C(C)/C=C\C=C/C(=O)N[C@H](C(=O)N/C=C\C[C@H](C/C=C(\C)Cl)OC(N)=O)C(C)(C)C)O[C@H]1O` [Compound 85], the CC50 is over 16.4 nM in the assay with A549 (A549, 48 h, read-out: LC50); 1.97 nM in the assay on HT29 (HT-29, 48 h, read-out: LC50); over 16.4 nM in the assay with MDA-MB-231 (setting [5]). The GI50 in the assay on A549 (A549, 48 hours exposure) was found to be 0.723 nM; in the assay with HT29 (HT-29, HT29, 48 hours exposure), 0.345 nM; in the assay with MDA-MB-231 (MDA-MB-231, 48 hours exposure), 1.02 nM. Further, the IC (total growth inhibition) in the assay with A549 (A549, 48 hours exposure) is 0.00164 µM; with HT29 (HT-29, HT29, 48 hours exposure) it was 0.000625 µM; in the assay with MDA-MB-231 (setting [4]), 0.00181 µM.
As for `C/C=C\C[C@@H](C/C=C\NC(=O)[C@@H](NC(=O)\C=C/C=C\C(C)=C\[C@H](C)[C@@H]1CC=C(OC)[C@H](O)O1)C(C)(C)C)OC(N)=O` [Compound 89], the CC50 was 0.819 nM in the assay on A549 (A549, 48 h, read-out: LC50); 0.227 nM in the assay on HT29 (HT-29, 48 h, read-out: LC50); over 1.74 nM in the assay with MDA-MB-231 (setting [5]). The GI50 in the assay on A549 (A549, 48 hours exposure) was 0.138 nM; in the assay with HT29 (HT-29, HT29, 48 hours exposure) it was 0.0802 nM; in the assay with MDA-MB-231 (MDA-MB-231, 48 hours exposure), 0.296 nM. For the same compound, the IC (total growth inhibition) in the assay with A549 (A549, 48 hours exposure) was 0.000279 µM; in the assay on HT29 (HT-29, HT29, 48 hours exposure), 0.000127 µM; in the assay on MDA-MB-231 (MDA-MB-231, 48 h), over 0.00174 µM.
For `C/C=C\C[C@H](O)C/C=C\NC(=O)[C@@H](NC(=O)/C=C\C#C/C(C)=C/[C@H](C)[C@@H]1CC=C(OC)C(=O)O1)C(C)(C)C` [Compound 96], the CC50 in the assay on A549 (A549, 48 h, read-out: LC50) was over 19000 nM; in the assay on HT29 (HT-29, 48 h, read-out: LC50) it was over 19000 nM; in the assay with MDA-MB-231 (setting [5]), over 19000 nM. Further, the GI50 with A549 (A549, 48 hours exposure) amounted to 7780 nM; in the assay on HT29 (HT-29, HT29, 48 hours exposure), 5890 nM; with MDA-MB-231 (MDA-MB-231, 48 hours exposure), 13100 nM. Also, the IC (total growth inhibition) in the assay with A549 (A549, 48 hours exposure) is over 19 µM; in the assay on HT29 (HT-29, HT29, 48 hours exposure), 8.92 µM; with MDA-MB-231 (setting [4]), over 19 µM.
Turning to `COC1=CC[C@@H]([C@@H](C)/C=C(C)/C=C\C#CCCC(=O)N[C@H](C(=O)N/C=C\C[C@H](C/C=C(\C)Cl)O[Si](c2ccccc2)(c2ccccc2)C(C)(C)C)C(C)(C)C)OC1=O` [Compound 98], the GI50 in the assay with A549 (A549, 48 hours exposure) worked out at 111 nM; with HT29 (HT-29, HT29, 48 hours exposure), 53.2 nM; in the assay on MDA-MB-231 (MDA-MB-231, 48 hours exposure) it was 104 nM. For the same compound, the values for the CC50 in the assay on A549 (setting [1]), in the assay on HT29 (setting [2]) and with MDA-MB-231 (setting [3]) were over 12100 nM, 169 nM and over 12100 nM, respectively. Moreover, the IC (total growth inhibition) in the assay on A549 (A549, 48 hours exposure) stood at 0.495 µM; in the assay with HT29 (HT-29, HT29, 48 hours exposure), 0.0701 µM; in the assay on MDA-MB-231 (setting [4]), 0.181 µM.
Take `COC1=CC[C@@H]([C@@H](C)/C=C(C)/C=C\C#CCCC(=O)N[C@H](C(=O)N/C=C\C[C@@H](O)C/C=C(\C)Cl)C(C)(C)C)OC1=O` [Compound 99]: the CC50 in the assay on A549 (A549, 48 h, read-out: LC50) was 12200 nM; in the assay on HT29 (HT-29, 48 h, read-out: LC50) it was 5770 nM; in the assay on MDA-MB-231 (setting [5]), 13200 nM. For the same compound, the GI50 turned out to be 3060 nM in the assay with A549 (A549, 48 hours exposure); 900 nM in the assay on HT29 (HT-29, HT29, 48 hours exposure); 2720 nM in the assay on MDA-MB-231 (MDA-MB-231, 48 hours exposure). The IC (total growth inhibition) in the assay on A549 (A549, 48 hours exposure) is 6.62 µM; with HT29 (HT-29, HT29, 48 hours exposure) it was 2.21 µM; in the assay with MDA-MB-231 (setting [4]) it was 6.11 µM.
For the compound `COC1=CC[C@@H]([C@@H](C)/C=C(C)/C=C\C#CCCC(=O)N[C@H](C(=O)N/C=C\C[C@H](C/C=C(\C)Cl)OC(N)=O)C(C)(C)C)OC1=O` [Compound 100], the CC50 with A549 (A549, 48 h, read-out: LC50) is over 15800 nM; in the assay on HT29 (HT-29, 48 h, read-out: LC50) it was 7590 nM; in the assay with MDA-MB-231 (setting [5]) it was over 15800 nM. In addition, the GI50 in the assay with A549 (A549, 48 hours exposure) amounted to 395 nM; with HT29 (HT-29, HT29, 48 hours exposure), 53.8 nM; with MDA-MB-231 (MDA-MB-231, 48 hours exposure) it was 348 nM. Also, the IC (total growth inhibition) in the assay on A549 (A549, 48 hours exposure) was 2.21 µM; in the assay on HT29 (HT-29, HT29, 48 hours exposure) it was 0.301 µM; in the assay on MDA-MB-231 (MDA-MB-231, 48 h), over 15.8 µM.

Usually GI50 stands for the concentration that inhibits growth by half. The low end stands for more potent growth inhibition, the high end for less potent growth inhibition.

The record behind these values is patent US9750759B2, “Antitumoral compounds” (priority 2008, dated 2017).
